From PMC3119665, “A New Drug Design Targeting the Adenosinergic System for Huntington's Disease” (PLoS ONE, 2011)

How the values were obtained:
A2B adenosine receptor = target: T1, A2B adenosine receptor (Homo sapiens, UniProt P29275); assay: Radioligand binding assay
T1 construct: MDS Pharma Services Taiwan
T1 sequence (P29275 1-332): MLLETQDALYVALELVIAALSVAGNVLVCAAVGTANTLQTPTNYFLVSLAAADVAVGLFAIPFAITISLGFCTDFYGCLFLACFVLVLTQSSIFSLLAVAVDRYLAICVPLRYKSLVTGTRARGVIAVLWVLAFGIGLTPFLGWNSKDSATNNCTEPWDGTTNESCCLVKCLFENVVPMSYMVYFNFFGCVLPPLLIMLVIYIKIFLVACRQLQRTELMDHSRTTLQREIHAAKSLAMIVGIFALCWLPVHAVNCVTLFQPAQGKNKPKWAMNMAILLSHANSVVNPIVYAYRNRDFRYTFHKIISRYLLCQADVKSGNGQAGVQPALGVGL

Adrenergic α 1D = target: T2, Adrenergic α 1D (Homo sapiens, UniProt P25100); assay: Radioligand binding panel (Table S1); details: 10 μM T1-11, n 2
T2 construct: purchased MDS Pharma Services Taiwan

Adrenergic α 2A = target: T3, Adrenergic α 2A (Homo sapiens, UniProt P08913); assay: Radioligand binding panel (Table S1); details: 10 μM T1-11, n 2
T3 construct: purchased MDS Pharma Services Taiwan

Angiotensin AT1 = target: T4, Angiotensin AT1 (Homo sapiens, UniProt P30556); assay: Radioligand binding panel (Table S1); details: 10 μM T1-11, n 2
T4 construct: purchased MDS Pharma Services Taiwan

Bradykinin B2 = target: T5, Bradykinin B2 (Homo sapiens, UniProt P30411); assay: Radioligand binding panel (Table S1); details: 10 μM T1-11, n 2
T5 construct: purchased MDS Pharma Services Taiwan

Cannabinoid CB2 = target: T6, Cannabinoid CB2 (Homo sapiens, UniProt P34972); assay: Radioligand binding panel (Table S1); details: 10 μM T1-11, n 2
T6 construct: purchased MDS Pharma Services Taiwan

[1] = target: T7, Cholecystokinin CCK. (CCK8) (Homo sapiens, UniProt P32239); assay: Radioligand binding panel (Table S1); details: 10 μM T1-11, n 2
T7 construct: purchased MDS Pharma Services Taiwan

Cyclooxygenase COX-2 = target: T8, Cyclooxygenase COX-2 (Homo sapiens, UniProt P35354); assay: Radioligand binding panel (Table S1); details: 10 μM T1-11, n 2
T8 construct: purchased MDS Pharma Services Taiwan

Dopamine D3 = target: T9, Dopamine D3 (Homo sapiens, UniProt P35462); assay: Radioligand binding panel (Table S1); details: 10 μM T1-11, n 2
T9 construct: purchased MDS Pharma Services Taiwan

Dopamine D4.7 = target: T10, Dopamine D4.7 (Homo sapiens, UniProt P21917, INS283GLPPDPCGPDCAPPAPGLPQDPCGPDCAPPAPGLPRGPCGPDCAPPAP/S284G); assay: Radioligand binding panel (Table S1); details: 10 μM T1-11, n 2
T10 construct: purchased MDS Pharma Services Taiwan

Estrogen ERβ = target: T11, Estrogen ERβ (Homo sapiens, UniProt Q92731); assay: Radioligand binding panel (Table S1); details: 10 μM T1-11, n 2
T11 construct: purchased MDS Pharma Services Taiwan

[2] = target: T12, G Protein-Coupled Receptor, GPR103 (Homo sapiens, UniProt Q96P65); assay: Radioligand binding panel (Table S1); details: 10 μM T1-11, n 2
T12 construct: purchased MDS Pharma Services Taiwan

Histamine H4 = target: T13, Histamine H4 (Homo sapiens, UniProt Q9H3N8); assay: Radioligand binding panel (Table S1); details: 10 μM T1-11, n 2
T13 construct: purchased MDS Pharma Services Taiwan

Leptin = target: T14, Leptin (Mus musculus, UniProt P48356); assay: Radioligand binding panel (Table S1); details: 10 μM T1-11, n 2
T14 construct: purchased MDS Pharma Services Taiwan

[3] = target: T15, Leukotriene, Cysteinyl CysLT2 (Homo sapiens, UniProt Q9NS75); assay: Radioligand binding panel (Table S1); details: 10 μM T1-11, n 2
T15 construct: purchased MDS Pharma Services Taiwan

Lipoxygenase 15-LO = target: T16, Lipoxygenase 15-LO (Oryctolagus cuniculus, UniProt P12530); assay: Radioligand binding panel (Table S1); set-up: species or system rabbit; details: 10 μM T1-11, n 2
T16 construct: purchased MDS Pharma Services Taiwan

Neuropeptide Y Y1 = target: T17, Neuropeptide Y Y1 (Homo sapiens, UniProt P25929); assay: Radioligand binding panel (Table S1); details: 10 μM T1-11, n 2
T17 construct: purchased MDS Pharma Services Taiwan

Neuropeptide Y Y2 = target: T18, Neuropeptide Y Y2 (Homo sapiens, UniProt P49146); assay: Radioligand binding panel (Table S1); details: 10 μM T1-11, n 2
T18 construct: purchased MDS Pharma Services Taiwan

[4] = target: T19, Nicotinic Acetylcholine α7, Bungarotoxin (Rattus norvegicus, UniProt Q05941); assay: Radioligand binding panel (Table S1)
T19 construct: purchased MDS Pharma Services Taiwan

Opiate κ (OP2, KOP) = target: T20, Opiate κ (OP2, KOP) (Homo sapiens, UniProt P41145); assay: Radioligand binding panel (Table S1); details: 10 μM T1-11, n 2
T20 construct: purchased MDS Pharma Services Taiwan

Orexin OX 1 = target: T21, Orexin OX 1 (Homo sapiens, UniProt O43613); assay: Radioligand binding panel (Table S1); details: 10 μM T1-11, n 2
T21 construct: purchased MDS Pharma Services Taiwan

Phosphodiesterase PDE1 = assay: Radioligand binding panel (Table S1); set-up: species or system human; details: 10 μM T1-11, n 2
Prostanoid EP2 = target: T22, Prostanoid EP2 (Homo sapiens, UniProt P43116); assay: Radioligand binding panel (Table S1); details: 10 μM T1-11, n 2
T22 construct: purchased MDS Pharma Services Taiwan

[5] = tested on: Serotonin (5-Hydroxytryptamine) 5-HT1, Non-Selective; assay: Radioligand binding panel (Table S1); set-up: species or system rat; details: 10 μM T1-11, n 2
[6] = target: T23, Serotonin (5-Hydroxytryptamine) 5-HT1B (Rattus norvegicus, UniProt P28564); assay: Radioligand binding panel (Table S1); details: 10 μM T1-11, n 2
T23 construct: purchased MDS Pharma Services Taiwan

[7] = target: T24, Serotonin (5-Hydroxytryptamine) 5-HT2B (Homo sapiens, UniProt P41595); assay: Radioligand binding panel (Table S1); details: 10 μM T1-11, n 2
T24 construct: purchased MDS Pharma Services Taiwan

[8] = target: T25, Serotonin (5-Hydroxytryptamine) 5-HT6 (Homo sapiens, UniProt P50406); assay: Radioligand binding panel (Table S1); details: 10 μM T1-11, n 2
T25 construct: purchased MDS Pharma Services Taiwan

Transporter, Monoamine = assay: Radioligand binding panel (Table S1); set-up: species or system rabbit; details: 10 μM T1-11, n 2
[9] = target: T26, Transporter, Norepinephrine (NET) (Homo sapiens, UniProt P23975); assay: Radioligand binding panel (Table S1); details: 10 μM T1-11, n 2
T26 construct: purchased MDS Pharma Services Taiwan

Vasopressin V1B = target: T27, Vasopressin V1B (Homo sapiens, UniProt P47901); assay: Radioligand binding panel (Table S1); details: 10 μM T1-11, n 2
T27 construct: purchased MDS Pharma Services Taiwan

[10] = T1-11 level in the brain after intraperitoneal injection; format: in vivo, mice; details: mouse, ip, 5 mg/kg, 30 min after the intraperitoneal injection, n = 4, mean ± s.e.m., read-out: T1-11 detected in the brain
R6/2 mice = assay: In vivo 3D MRI imaging of brain atrophy in R6/2 mice; details: 0.05 mg/ml in drinking water, five weeks
Experimental: Supplementary file pone.0020934.s005.tif: Figure S5 Effect of T1-11 on the shorten lifespan and enlarged ventricle of R6/2 mice. Animals were given the vehicle (1% DMSO; CON) or T1-11 (0.05 mg/ml)-containing drinking water from the age of 7 weeks. (A) Survival was assessed. Specific comparison to R6/2 mice treated with the vehicle (p = 0.306; Mantel-Cox test). (B) Five weeks after T1-11 treatment, 3D-lMRI was performed to determine the ventricle-to-brain ratio of the indicated animals as described. * p<0.05. (TIF) Click here for additional data file.

[11] = n.s. = not significant, no significant binding at 10 µM

T9 sequence (P35462 whole entry): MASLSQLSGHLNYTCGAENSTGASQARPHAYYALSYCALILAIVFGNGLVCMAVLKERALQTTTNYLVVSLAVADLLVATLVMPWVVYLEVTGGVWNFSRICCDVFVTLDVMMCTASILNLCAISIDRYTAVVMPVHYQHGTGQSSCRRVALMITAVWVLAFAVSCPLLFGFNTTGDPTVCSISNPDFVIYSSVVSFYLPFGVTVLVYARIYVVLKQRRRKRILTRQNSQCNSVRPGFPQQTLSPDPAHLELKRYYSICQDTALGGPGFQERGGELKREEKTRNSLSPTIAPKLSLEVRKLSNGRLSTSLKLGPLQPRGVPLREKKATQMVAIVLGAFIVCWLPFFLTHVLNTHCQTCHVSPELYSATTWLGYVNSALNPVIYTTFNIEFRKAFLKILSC
T6 sequence (P34972 whole entry): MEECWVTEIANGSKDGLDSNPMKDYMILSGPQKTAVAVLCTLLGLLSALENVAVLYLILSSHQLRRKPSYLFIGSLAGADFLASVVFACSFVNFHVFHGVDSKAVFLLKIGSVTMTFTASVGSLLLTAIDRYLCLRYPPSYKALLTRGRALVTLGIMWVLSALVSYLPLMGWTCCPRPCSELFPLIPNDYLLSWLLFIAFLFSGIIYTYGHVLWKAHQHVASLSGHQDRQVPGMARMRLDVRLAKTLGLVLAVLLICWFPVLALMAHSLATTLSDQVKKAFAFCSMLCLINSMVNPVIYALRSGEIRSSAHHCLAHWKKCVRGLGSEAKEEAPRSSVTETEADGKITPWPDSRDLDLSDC
T2 sequence (P25100 whole entry): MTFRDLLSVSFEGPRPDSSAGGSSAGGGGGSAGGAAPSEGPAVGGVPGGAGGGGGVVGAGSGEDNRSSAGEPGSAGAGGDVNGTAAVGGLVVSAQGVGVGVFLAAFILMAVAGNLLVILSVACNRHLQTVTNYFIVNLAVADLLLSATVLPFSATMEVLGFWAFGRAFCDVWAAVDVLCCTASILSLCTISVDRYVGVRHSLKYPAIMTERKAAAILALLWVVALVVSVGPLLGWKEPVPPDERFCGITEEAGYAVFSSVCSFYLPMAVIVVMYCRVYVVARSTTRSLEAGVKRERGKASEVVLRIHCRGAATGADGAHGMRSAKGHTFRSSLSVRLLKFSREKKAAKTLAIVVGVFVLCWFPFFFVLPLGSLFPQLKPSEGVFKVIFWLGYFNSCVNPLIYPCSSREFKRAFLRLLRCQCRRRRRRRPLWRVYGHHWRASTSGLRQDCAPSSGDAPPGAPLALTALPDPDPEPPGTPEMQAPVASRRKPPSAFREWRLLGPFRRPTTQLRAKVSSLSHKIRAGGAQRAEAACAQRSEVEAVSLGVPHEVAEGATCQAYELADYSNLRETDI
T14 sequence (P48356 22-1162): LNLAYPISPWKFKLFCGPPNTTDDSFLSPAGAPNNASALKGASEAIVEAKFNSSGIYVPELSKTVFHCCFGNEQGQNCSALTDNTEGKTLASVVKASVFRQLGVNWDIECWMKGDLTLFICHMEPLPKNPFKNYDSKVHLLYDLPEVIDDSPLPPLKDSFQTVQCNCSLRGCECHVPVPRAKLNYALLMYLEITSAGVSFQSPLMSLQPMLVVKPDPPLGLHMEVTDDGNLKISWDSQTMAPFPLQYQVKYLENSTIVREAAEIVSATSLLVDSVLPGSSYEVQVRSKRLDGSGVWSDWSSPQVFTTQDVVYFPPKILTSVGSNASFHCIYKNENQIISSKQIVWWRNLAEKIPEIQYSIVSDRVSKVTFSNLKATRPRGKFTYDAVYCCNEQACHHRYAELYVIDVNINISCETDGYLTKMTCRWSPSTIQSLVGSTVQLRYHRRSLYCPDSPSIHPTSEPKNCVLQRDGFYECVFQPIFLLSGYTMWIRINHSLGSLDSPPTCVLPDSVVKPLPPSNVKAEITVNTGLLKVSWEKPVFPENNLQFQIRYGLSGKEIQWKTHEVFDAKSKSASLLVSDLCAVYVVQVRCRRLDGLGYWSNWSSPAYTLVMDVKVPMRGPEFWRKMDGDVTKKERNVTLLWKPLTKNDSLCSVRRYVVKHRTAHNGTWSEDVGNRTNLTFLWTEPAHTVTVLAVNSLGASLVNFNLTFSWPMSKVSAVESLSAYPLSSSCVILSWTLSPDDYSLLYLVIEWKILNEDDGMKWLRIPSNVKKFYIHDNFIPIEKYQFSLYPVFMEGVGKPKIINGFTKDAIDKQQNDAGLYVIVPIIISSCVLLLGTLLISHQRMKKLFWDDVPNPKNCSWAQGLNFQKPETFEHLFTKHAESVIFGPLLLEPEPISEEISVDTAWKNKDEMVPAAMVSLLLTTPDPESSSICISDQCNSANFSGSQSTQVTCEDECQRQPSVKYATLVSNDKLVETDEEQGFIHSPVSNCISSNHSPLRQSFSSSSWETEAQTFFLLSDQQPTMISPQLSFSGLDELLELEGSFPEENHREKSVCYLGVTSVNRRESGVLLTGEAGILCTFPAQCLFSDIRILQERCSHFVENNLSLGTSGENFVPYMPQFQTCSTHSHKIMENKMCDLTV
T5 sequence (P30411 whole entry): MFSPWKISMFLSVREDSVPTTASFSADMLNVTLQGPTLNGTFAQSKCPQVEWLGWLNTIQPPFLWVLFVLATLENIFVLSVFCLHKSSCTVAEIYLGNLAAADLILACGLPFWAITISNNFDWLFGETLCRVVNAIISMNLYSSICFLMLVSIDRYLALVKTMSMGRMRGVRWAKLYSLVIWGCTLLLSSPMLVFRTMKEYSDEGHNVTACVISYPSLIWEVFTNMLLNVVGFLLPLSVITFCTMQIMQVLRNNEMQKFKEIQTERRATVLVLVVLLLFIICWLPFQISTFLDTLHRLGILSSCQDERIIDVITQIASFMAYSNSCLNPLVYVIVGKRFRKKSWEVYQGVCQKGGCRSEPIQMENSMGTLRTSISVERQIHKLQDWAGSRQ
T7 sequence (P32239 whole entry): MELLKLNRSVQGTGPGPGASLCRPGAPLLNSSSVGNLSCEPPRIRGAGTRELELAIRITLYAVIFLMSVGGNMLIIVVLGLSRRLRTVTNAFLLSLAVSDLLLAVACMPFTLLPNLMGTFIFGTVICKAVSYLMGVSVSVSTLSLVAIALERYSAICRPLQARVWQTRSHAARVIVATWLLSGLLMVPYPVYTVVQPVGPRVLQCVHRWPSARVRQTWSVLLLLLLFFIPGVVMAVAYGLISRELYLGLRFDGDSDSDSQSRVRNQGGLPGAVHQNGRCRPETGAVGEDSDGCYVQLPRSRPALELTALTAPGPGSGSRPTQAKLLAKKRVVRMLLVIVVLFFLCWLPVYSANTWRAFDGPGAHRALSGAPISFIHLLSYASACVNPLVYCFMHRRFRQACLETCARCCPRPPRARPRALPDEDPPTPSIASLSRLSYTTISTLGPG
T4 sequence (P30556 whole entry): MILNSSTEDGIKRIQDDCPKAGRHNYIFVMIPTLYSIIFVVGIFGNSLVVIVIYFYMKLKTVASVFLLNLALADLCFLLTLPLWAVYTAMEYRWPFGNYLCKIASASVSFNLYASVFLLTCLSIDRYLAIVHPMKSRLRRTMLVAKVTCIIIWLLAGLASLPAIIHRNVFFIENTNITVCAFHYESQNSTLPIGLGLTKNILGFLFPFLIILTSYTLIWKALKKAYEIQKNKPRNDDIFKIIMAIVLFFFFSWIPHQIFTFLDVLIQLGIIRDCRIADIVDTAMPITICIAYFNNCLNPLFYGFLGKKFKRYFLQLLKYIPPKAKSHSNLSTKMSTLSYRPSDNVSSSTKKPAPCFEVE
T24 sequence (P41595 whole entry): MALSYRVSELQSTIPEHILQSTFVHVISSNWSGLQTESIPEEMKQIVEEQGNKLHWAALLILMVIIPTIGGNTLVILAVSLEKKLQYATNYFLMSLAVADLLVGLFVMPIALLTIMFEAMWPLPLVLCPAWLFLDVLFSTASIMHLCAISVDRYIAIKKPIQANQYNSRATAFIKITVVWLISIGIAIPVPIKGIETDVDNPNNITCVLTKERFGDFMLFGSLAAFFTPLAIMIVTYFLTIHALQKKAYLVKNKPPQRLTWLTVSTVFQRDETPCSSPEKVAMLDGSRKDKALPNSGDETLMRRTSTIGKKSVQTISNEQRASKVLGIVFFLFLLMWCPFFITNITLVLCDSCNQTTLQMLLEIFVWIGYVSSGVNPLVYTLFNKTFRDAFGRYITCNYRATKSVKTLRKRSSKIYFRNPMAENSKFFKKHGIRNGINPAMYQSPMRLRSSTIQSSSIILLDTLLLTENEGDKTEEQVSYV
T17 sequence (P25929 whole entry): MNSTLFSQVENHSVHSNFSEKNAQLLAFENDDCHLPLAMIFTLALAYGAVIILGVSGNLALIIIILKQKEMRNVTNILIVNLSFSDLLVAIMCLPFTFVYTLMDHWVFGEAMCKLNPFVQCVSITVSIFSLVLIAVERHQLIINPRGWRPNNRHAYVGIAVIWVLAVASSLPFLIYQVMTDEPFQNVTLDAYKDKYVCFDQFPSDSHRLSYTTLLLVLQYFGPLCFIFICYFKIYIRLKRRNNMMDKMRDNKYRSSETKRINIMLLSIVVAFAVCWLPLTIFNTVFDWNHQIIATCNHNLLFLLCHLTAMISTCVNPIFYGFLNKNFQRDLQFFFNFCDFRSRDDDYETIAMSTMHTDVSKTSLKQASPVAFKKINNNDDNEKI
T25 sequence (P50406 whole entry): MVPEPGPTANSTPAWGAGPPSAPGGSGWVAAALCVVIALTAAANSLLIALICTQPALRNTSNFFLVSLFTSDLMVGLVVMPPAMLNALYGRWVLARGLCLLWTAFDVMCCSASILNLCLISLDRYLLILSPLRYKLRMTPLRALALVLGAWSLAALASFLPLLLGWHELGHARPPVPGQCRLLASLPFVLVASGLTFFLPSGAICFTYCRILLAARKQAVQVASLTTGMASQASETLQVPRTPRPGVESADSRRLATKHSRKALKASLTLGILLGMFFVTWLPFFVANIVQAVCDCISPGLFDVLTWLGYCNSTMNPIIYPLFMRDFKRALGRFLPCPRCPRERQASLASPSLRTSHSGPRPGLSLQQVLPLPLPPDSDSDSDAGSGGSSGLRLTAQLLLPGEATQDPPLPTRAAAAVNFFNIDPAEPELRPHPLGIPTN

In the case of OC[C@H]1O[C@@H](n2cnc3c(NCc4ccc(O)cc4)ncnc32)[C@H](O)[C@@H]1O [T1-11, N ^6-(4-hydroxybenzyl)adenine riboside], the inhibition at 10 µM (A2B adenosine receptor; 10 μM T1-11, n 2) is reported as 0%, the IC50 (A2B adenosine receptor; [11]) is reported as “n.s” and the Ki (A2B adenosine receptor; [11]) is reported as “n.s”. For the same compound, the inhibition at 10 µM (Adrenergic α 1D) was 8%, the inhibition at 10 µM (Adrenergic α 2A) was -8% and the inhibition at 10 µM (Angiotensin AT1) was -5%. For the same compound, the inhibition at 10 µM (Bradykinin B2) was -9%, the inhibition at 10 µM (Cannabinoid CB2) was -2% and the inhibition at 10 µM [1] was -5%. The inhibition at 10 µM (Cyclooxygenase COX-2) was 0%, the inhibition at 10 µM (Dopamine D3) was -7% and the inhibition at 10 µM (Dopamine D4.7) was 3%. The inhibition at 10 µM (Estrogen ERβ) was 40%, the inhibition at 10 µM [2] was 2% and the inhibition at 10 µM (Histamine H4) was 8%. For the same compound, the inhibition at 10 µM (Leptin) was 6%, the inhibition at 10 µM [3] was 10% and the inhibition at 10 µM (Lipoxygenase 15-LO) was 14%. For the same compound, the inhibition at 10 µM (Neuropeptide Y Y1) was 6%, the inhibition at 10 µM (Neuropeptide Y Y2) was 4% and the inhibition at 10 µM [4] was -1%. For the same compound, the inhibition at 10 µM (Opiate κ (OP2, KOP)) was 6%, the inhibition at 10 µM (Orexin OX 1) was -13% and the “% Inhibition” value (Phosphodiesterase PDE1) was 17%. For the same compound, the inhibition at 10 µM (Prostanoid EP2) was 10%, the “% Inhibition” value [5] was 10% and the inhibition at 10 µM [6] was 3%. For the same compound, the inhibition at 10 µM [7] was 5%, the inhibition at 10 µM [8] was 12% and the “% Inhibition” value (Transporter, Monoamine) was -6%. It also gave an inhibition at 10 µM [9] of 6%, an inhibition at 10 µM (Vasopressin V1B) of -18% and a concentration at 30 min [10] of 0.12 ± 0.01 ng/g. For the same compound, the “Brain atrophy (3D MRI)” value (R6/2 mice) was “slightly ameliorated the brain atrophy of R6/2 mice but the improvement did not reach statistic significance”.
